Source: article PMC5883864 (Chemical Science, 2017)

Target: glucose oxidase (GOx) (Aspergillus niger, UniProt P13006)
Assay: HRP-coupled chromogenic assay of H2O2
Format: biochemical
Details: free enzyme; O2 co-substrate

Chain of glucose oxidase (GOx) (P13006 17-605): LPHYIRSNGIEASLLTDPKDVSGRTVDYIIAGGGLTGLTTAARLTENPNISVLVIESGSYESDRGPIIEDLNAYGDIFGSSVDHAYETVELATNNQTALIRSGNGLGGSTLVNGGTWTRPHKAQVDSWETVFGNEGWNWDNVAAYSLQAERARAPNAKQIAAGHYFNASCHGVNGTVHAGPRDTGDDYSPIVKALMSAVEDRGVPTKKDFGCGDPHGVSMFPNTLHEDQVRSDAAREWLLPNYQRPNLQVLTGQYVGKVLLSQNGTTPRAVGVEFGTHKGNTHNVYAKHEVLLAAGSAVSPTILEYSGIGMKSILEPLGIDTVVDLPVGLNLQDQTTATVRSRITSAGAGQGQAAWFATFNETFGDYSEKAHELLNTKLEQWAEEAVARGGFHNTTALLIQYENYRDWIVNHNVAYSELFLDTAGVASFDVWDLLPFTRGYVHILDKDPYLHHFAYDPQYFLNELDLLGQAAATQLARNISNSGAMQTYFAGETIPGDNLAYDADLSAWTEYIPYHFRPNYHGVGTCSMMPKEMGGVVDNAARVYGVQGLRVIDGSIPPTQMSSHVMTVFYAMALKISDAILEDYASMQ

Q: Which KM does the source give for `OC[C@H]1OC(O)[C@H](O)[C@@H](O)[C@@H]1O` (stereo partly shown) [glucose] here?
A: glucose diffuses in and one of the products, namely hydrogen peroxide, must diffuse out
